In patent US11667649B2, “Heteroaromatic macrocyclic ether chemotherapeutic agents” (Nuvalent, Inc., priority 2020, dated 2023):

Test system: TPM3-NTRK1-wt IC50 / primary target (e.g. CD74-ROS1-wt) IC50, Ba/F3 cells
Test: Cell assay TRKA selectivity (TRKA potency divided by primary target potency)
Type: cell-based
Conditions: for TPM3-NTRK1-wt/CD74-ROS1-G2032R: TRKA selectivity ratio: TPM3-NTRK1-wt IC50 / CD74-ROS1-G2032R IC50, Ba/F3 cells; for TPM3-NTRK1-wt/CD74-ROS1-wt: TRKA selectivity ratio: TPM3-NTRK1-wt IC50 / CD74-ROS1-wt IC50, Ba/F3 cells; for TPM3-NTRK1-wt/EML4-ALK-L1196M-G1202R: TRKA selectivity ratio: TPM3-NTRK1-wt IC50 / EML4-ALK-L1196M-G1202R IC50, Ba/F3 cells; for TPM3-NTRK1-wt/EML4-ALK-wt: TRKA selectivity ratio: TPM3-NTRK1-wt IC50 / EML4-ALK-wt IC50, Ba/F3 cells
Outline: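 IL-3-independent Ba/F3 lines stably expressing TPM3-TRKA or the primary fusion (e.g. CD74-ROS1 wt) were exposed to 3-fold compound dilutions for 72 h. Viability was read by CellTiter-Glo luminescence, with IC50 from four-parameter logistic fit. Selectivity is TPM3-NTRK1 IC50 divided by primary-target IC50, binned A (>30-fold) to D (<1).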

With C[C@H]1Oc2cc(cnc2N)-c2c(cnn2CC(F)F)Cc2cc(C(F)(F)F)nn2-c2ccc(F)cc21 [Example 84, (19R)-3-(2,2-difluoroethyl)-16-fluoro-19-methyl-10-(trifluoromethyl)-20-oxa-3,4,11,12,23-pentaazapentacyclo[19.3.1.0^2,^6.0^8,^12.0^13,^18]pentacosa-1(24),2(6),4,8,10,13,15,17,21(25),22-decaen-22-amine] the TPM3-NTRK1-wt/CD74-ROS1-G2032R was “A (bin A for very high selectivity, ratio>30-fold)”, the TPM3-NTRK1-wt/CD74-ROS1-wt was “A (bin A for very high selectivity, ratio>30-fold)” and the TPM3-NTRK1-wt/EML4-ALK-L1196M-G1202R was “C (bin C for moderate selectivity, ratio≥1)”. For the same molecule, the TPM3-NTRK1-wt/EML4-ALK-wt was “A (bin A for very high selectivity, ratio>30-fold)”.
For C[C@H]1Oc2cc(cnc2N)-c2c(nnn2CC2CC2)Cc2cc(C(F)F)nn2-c2ccc(F)cc21 [Example 122, (19R)-3-(cyclopropylmethyl)-10-(difluoromethyl)-16-fluoro-19-methyl-20-oxa-3,4,5,11,12,23-hexaazapentacyclo[19.3.1.0^2,^6.0^8,^12.0^13,^18]pentacosa-1(24),2(6),4,8,10,13,15,17,21(25),22-decaen-22-amine], the TPM3-NTRK1-wt/CD74-ROS1-G2032R was “A (bin A for very high selectivity, ratio>30-fold)”, the TPM3-NTRK1-wt/CD74-ROS1-wt was “A (bin A for very high selectivity, ratio>30-fold)” and the TPM3-NTRK1-wt/EML4-ALK-L1196M-G1202R was “C (bin C for moderate selectivity, ratio≥1)”. For the same molecule, the TPM3-NTRK1-wt/EML4-ALK-wt was “B (bin B for high selectivity, ratio>10-fold)”.
With CC1Oc2cc(cnc2N)-c2c(cnn2C)Cc2cnn(C)c2-c2ccc(F)cc21 (centres unmarked) [Example 2, 16-fluoro-3,11,19-trimethyl-20-oxa-3,4,10,11,23-pentaazapentacyclo[19.3.1.0^2,^6.0^8,^12.0^13,^18]pentacosa-1(24),2(6),4,8(12),9,13,15,17,21(25),22-decaen-22-amine] the TPM3-NTRK1-wt/CD74-ROS1-G2032R was “B (bin B for high selectivity, ratio>10-fold)”, the TPM3-NTRK1-wt/CD74-ROS1-wt was “A (bin A for very high selectivity, ratio>30-fold)” and the TPM3-NTRK1-wt/EML4-ALK-L1196M-G1202R was “D (bin D for low selectivity, ratio<1)”. The TPM3-NTRK1-wt/EML4-ALK-wt was “B (bin B for high selectivity, ratio>10-fold)”.
In the case of CCc1nn(C)c2c1-c1cnc(N)c(c1)OCc1cc(F)ccc1-c1nn(C)cc1C2 [Example 176, 3-ethyl-16-fluoro-5,10-dimethyl-20-oxa-4,5,10,11,23-pentaazapentacyclo[19.3.1.0^2,^6.0^8,^12.0^13,^18]pentacosa-1(24),2(6),3,8,11,13,15,17,21(25),22-decaen-22-amine], the TPM3-NTRK1-wt/CD74-ROS1-G2032R is reported as “A (bin A for very high selectivity, ratio>30-fold)”, the TPM3-NTRK1-wt/CD74-ROS1-wt is reported as “A (bin A for very high selectivity, ratio>30-fold)” and the TPM3-NTRK1-wt/EML4-ALK-L1196M-G1202R is reported as “B (bin B for high selectivity, ratio>10-fold)”. The TPM3-NTRK1-wt/EML4-ALK-wt was “A (bin A for very high selectivity, ratio>30-fold)”.
For CCn1ncc2c1-c1cnc(N)c(c1)O[C@H](C)c1cc(F)ccc1-c1nn(C)cc1C2 [Example 1, (19R)-3-ethyl-16-fluoro-10,19-dimethyl-20-oxa-3,4,10,11,23-pentaazapentacyclo[19.3.1.0^2,^60^8,^12.0^13,^18]pentacosa-1(24),2(6),4,8,11,13,15,17,21(25),22-decaen-22-amine], the TPM3-NTRK1-wt/CD74-ROS1-G2032R was “A (bin A for very high selectivity, ratio>30-fold)”, the TPM3-NTRK1-wt/CD74-ROS1-wt was “A (bin A for very high selectivity, ratio>30-fold)” and the TPM3-NTRK1-wt/EML4-ALK-L1196M-G1202R was “A (bin A for very high selectivity, ratio>30-fold)”. For the same molecule, the TPM3-NTRK1-wt/EML4-ALK-wt was “A (bin A for very high selectivity, ratio>30-fold)”.
Cc1cc2n(n1)-c1ccc(F)cc1[C@@H](C)Oc1cc(cnc1N)-c1c(cnn1CC1CC1)C2 [Example 109, (19R)-3-(cyclopropylmethyl)-16-fluoro-10,19-dimethyl-20-oxa-3,4,11,12,23-pentaazapentacyclo[19.3.1.0^2,^6.0^8,^12.0^13,^18]pentacosa-1(24),2(6),4,8,10,13,15,17,21(25),22-decaen-22-amine] was tested, and the TPM3-NTRK1-wt/CD74-ROS1-G2032R was “A (bin A for very high selectivity, ratio>30-fold)”, the TPM3-NTRK1-wt/CD74-ROS1-wt was “A (bin A for very high selectivity, ratio>30-fold)” and the TPM3-NTRK1-wt/EML4-ALK-L1196M-G1202R was “A (bin A for very high selectivity, ratio>30-fold)”. For the same molecule, the TPM3-NTRK1-wt/EML4-ALK-wt was “A (bin A for very high selectivity, ratio>30-fold)”.
For CCn1ncc2c1-c1cnc(N)c(c1)O[C@H](C)c1cc(F)ccc1-c1nc(C)cn1C2 [Example 45, (19R)-3-ethyl-16-fluoro-10,19-dimethyl-20-oxa-3,4,8,11,23-pentaazapentacyclo[19.3.1.0^2,^6.0^8,^12.0^13,^18]pentacosa-1(24),2(6),4,9,11,13,15,17,21(25),22-decaen-22-amine], the TPM3-NTRK1-wt/CD74-ROS1-G2032R was “A (bin A for very high selectivity, ratio>30-fold)”, the TPM3-NTRK1-wt/CD74-ROS1-wt was “A (bin A for very high selectivity, ratio>30-fold)” and the TPM3-NTRK1-wt/EML4-ALK-L1196M-G1202R was “B (bin B for high selectivity, ratio>10-fold)”. The TPM3-NTRK1-wt/EML4-ALK-wt was “A (bin A for very high selectivity, ratio>30-fold)”.
With CC1Oc2cc(cnc2N)-c2c(cnn2CC(F)F)Cn2ccnc2-c2ccc(F)cc21 (centres unmarked) [Example 40, 3-(2,2-difluoroethyl)-16-fluoro-19-methyl-20-oxa-3,4,8,11,23-pentaazapentacyclo[19.3.1.0^2,^6.0^8,^12.0^13,^18]pentacosa-1(24),2(6),4,9,11,13,15,17,21(25),22-decaen-22-amine] the TPM3-NTRK1-wt/CD74-ROS1-G2032R was “A (bin A for very high selectivity, ratio>30-fold)”, the TPM3-NTRK1-wt/CD74-ROS1-wt was “A (bin A for very high selectivity, ratio>30-fold)” and the TPM3-NTRK1-wt/EML4-ALK-L1196M-G1202R was “A (bin A for very high selectivity, ratio>30-fold)”. For the same molecule, the TPM3-NTRK1-wt/EML4-ALK-wt was “A (bin A for very high selectivity, ratio>30-fold)”.
With CCn1ncc2c1-c1cnc(N)c(c1)O[C@H](C)c1cc(F)ccc1-c1nccc(OC)c1C2 [Example 151, (20R)-3-ethyl-17-fluoro-9-methoxy-20-methyl-21-oxa-3,4,12,24-tetraazapentacyclo[20.3.1.0^2,^6.0^8,^13.0^14,^19]hexacosa-1(25),2(6),4,8(13),9,11,14,16,18,22(26),23-undecaen-23-amine] the TPM3-NTRK1-wt/CD74-ROS1-G2032R was “A (bin A for very high selectivity, ratio>30-fold)”, the TPM3-NTRK1-wt/CD74-ROS1-wt was “A (bin A for very high selectivity, ratio>30-fold)” and the TPM3-NTRK1-wt/EML4-ALK-L1196M-G1202R was “C (bin C for moderate selectivity, ratio≥1)”. The TPM3-NTRK1-wt/EML4-ALK-wt was “A (bin A for very high selectivity, ratio>30-fold)”.
In the case of Cc1nn(CC(F)F)c2c1Cc1cn(C)nc1-c1ccc(F)cc1[C@@H](C)Oc1cc-2cnc1N [Example 79, (19R)-3-(2,2-difluoroethyl)-16-fluoro-5,10,19-trimethyl-20-oxa-3,4,10,11,23-pentaazapentacyclo[19.3.1.0^2,^6.0^8,^12.0^13,^18]pentacosa-1(24),2(6),4,8,11,13,15,17,21(25),22-decaen-22-amine], the TPM3-NTRK1-wt/CD74-ROS1-G2032R is reported as “A (bin A for very high selectivity, ratio>30-fold)”, the TPM3-NTRK1-wt/CD74-ROS1-wt is reported as “A (bin A for very high selectivity, ratio>30-fold)” and the TPM3-NTRK1-wt/EML4-ALK-L1196M-G1202R is reported as “A (bin A for very high selectivity, ratio>30-fold)”. The TPM3-NTRK1-wt/EML4-ALK-wt was “A (bin A for very high selectivity, ratio>30-fold)”.
In the case of CCc1nn(C)c2c1-c1cnc(N)c(c1)O[C@H](C)c1cc(F)ccc1-c1nc(C)sc1C2 [Example 173, (19R)-3-ethyl-16-fluoro-5,10,19-trimethyl-20-oxa-9-thia-4,5,11,23-tetraazapentacyclo[19.3.1.0^2,^6.0^8,^12.0^13,^18]pentacosa-1(24),2(6),3,8(12),10,13,15,17,21(25),22-decaen-22-amine], the TPM3-NTRK1-wt/CD74-ROS1-G2032R is reported as “A (bin A for very high selectivity, ratio>30-fold)”, the TPM3-NTRK1-wt/CD74-ROS1-wt is reported as “A (bin A for very high selectivity, ratio>30-fold)” and the TPM3-NTRK1-wt/EML4-ALK-L1196M-G1202R is reported as “B (bin B for high selectivity, ratio>10-fold)”. The TPM3-NTRK1-wt/EML4-ALK-wt was “A (bin A for very high selectivity, ratio>30-fold)”.
In the case of C[C@H]1Oc2cc(cnc2N)-c2c(CC3CC3)nn(C)c2Cc2cn(C)nc2-c2ccc(F)cc21 [Example 178, (19R)-3-(cyclopropylmethyl)-16-fluoro-5,10,19-trimethyl-20-oxa-4,5,10,11,23-pentaazapentacyclo[19.3.1.0^2,^6.0^8,^12.0^13,^18]pentacosa-1(24),2(6),3,8,11,13,15,17,21(25),22-decaen-22-amine], the TPM3-NTRK1-wt/CD74-ROS1-G2032R is reported as “A (bin A for very high selectivity, ratio>30-fold)”, the TPM3-NTRK1-wt/CD74-ROS1-wt is reported as “A (bin A for very high selectivity, ratio>30-fold)” and the TPM3-NTRK1-wt/EML4-ALK-L1196M-G1202R is reported as “A (bin A for very high selectivity, ratio>30-fold)”. For the same molecule, the TPM3-NTRK1-wt/EML4-ALK-wt was “A (bin A for very high selectivity, ratio>30-fold)”.
For CCn1ncc2c1-c1cnc(N)c(c1)O[C@H](C)c1cc(F)ccc1-n1nc(Cl)cc1C2 [Example 74, (19R)-10-chloro-3-ethyl-16-fluoro-19-methyl-20-oxa-3,4,11,12,23-pentaazapentacyclo[19.3.1.0^2,^6.0^8,^12.0^13,^18]pentacosa-1(24),2(6),4,8,10,13,15,17,21(25),22-decaen-22-amine], the TPM3-NTRK1-wt/CD74-ROS1-G2032R was “A (bin A for very high selectivity, ratio>30-fold)”, the TPM3-NTRK1-wt/CD74-ROS1-wt was “A (bin A for very high selectivity, ratio>30-fold)” and the TPM3-NTRK1-wt/EML4-ALK-L1196M-G1202R was “B (bin B for high selectivity, ratio>10-fold)”. The TPM3-NTRK1-wt/EML4-ALK-wt was “A (bin A for very high selectivity, ratio>30-fold)”.
For CCn1nnc2c1-c1cnc(N)c(c1)O[C@H](C)c1cc(F)ccc1-c1sncc1C2 [Example 93, (19R)-3-ethyl-16-fluoro-19-methyl-20-oxa-11-thia-3,4,5,10,23-pentaazapentacyclo[19.3.1.0^2,^6.0^8,^12.0^13,^18]pentacosa-1(24),2(6),4,8(12),9,13,15,17,21(25),22-decaen-22-amine], the TPM3-NTRK1-wt/CD74-ROS1-G2032R was “A (bin A for very high selectivity, ratio>30-fold)”, the TPM3-NTRK1-wt/CD74-ROS1-wt was “A (bin A for very high selectivity, ratio>30-fold)” and the TPM3-NTRK1-wt/EML4-ALK-L1196M-G1202R was “C (bin C for moderate selectivity, ratio≥1)”. The TPM3-NTRK1-wt/EML4-ALK-wt was “B (bin B for high selectivity, ratio>10-fold)”.
